Measurements from patent publication US20230017045A1, “PYRIDINE AND PYRIMIDINE CARBOXYLATE HERBICIDES AND METHODS OF USE THEREOF” (Dow AgroSciences LLC, priority 2017, published 2023).
Read-outs that look alike come from different tables or passages of the source.

Test system: test plant species
Test: Post-emergent herbicidal activity test (greenhouse, foliar spray, visual growth reduction)
Type: in vivo
Conditions: post-emergence, 336 h, 140 g ai/ha
Method in brief: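 Visual percent injury (0-100) rated 14 d after treatment, relative to nontreated and solvent-blank plants. Test plants at first or second true leaf stage received an overhead track-sprayer application at 187 L/ha. Compounds were formulated in aqueous acetone/DMSO carrier containing crop oil concentrate and X-77 surfactant.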

[1] = ALOMY: blackgrass (Alopecurus myosuroides), 14 days after application, read-out: Visual Growth Reduction (%) 14 Days After Application, ALOMY
[2] = AMARE: redroot pigweed (Amaranthus retroflexus), 14 days after application, read-out: Visual Growth Reduction (%) 14 Days After Application, AMARE
[3] = AVEFA: wild oat (Avena fatua), 14 days after application, read-out: Visual Growth Reduction (%) 14 Days After Application, AVEFA
[4] = CHEAL: lambsquarters (Chenopodium album), 14 days after application, read-out: Visual Growth Reduction (%) 14 Days After Application, CHEAL
[5] = CIRAR: canada thistle (Cirsium arvense), 14 days after application, read-out: Visual Growth Reduction (%) 14 Days After Application, CIRAR
[6] = CYPES: yellow nutsedge (Cyperus esculentus), 14 days after application, read-out: Visual Growth Reduction (%) 14 Days After Application, CYPES
[7] = DIGSA: crabgrass (Digitaria sanguinalis), 14 days after application, read-out: Visual Growth Reduction (%) 14 Days After Application, DIGSA
[8] = ECHCG: barnyardgrass (Echinochloa crus-galli), 14 days after application, read-out: Visual Growth Reduction (%) 14 Days After Application, ECHCG
[9] = IPOHE: ivy-leaf morning glory (Ipomoea hederacea), 14 days after application, read-out: Visual Growth Reduction (%) 14 Days After Application, IPOHE
[10] = KCHSC: kochia (Bassia scoparia), 14 days after application, read-out: Visual Growth Reduction (%) 14 Days After Application, KCHSC
[11] = ORYSA: rice (Oryza sativa), 14 days after application, read-out: Visual Growth Reduction (%) 14 Days After Application, ORYSA
[12] = SETFA: giant foxtail (Setaria faberi), 14 days after application, read-out: Visual Growth Reduction (%) 14 Days After Application, SETFA
[13] = SORVU: grain sorghum (Sorghum vulgare), 14 days after application, read-out: Visual Growth Reduction (%) 14 Days After Application, SORVU
[14] = STEME: common chickweed (Stellaria media), 14 days after application, read-out: Visual Growth Reduction (%) 14 Days After Application, STEME
[15] = TRZAS: wheat, spring (Triticum aestivum), 14 days after application, read-out: Visual Growth Reduction (%) 14 Days After Application, TRZAS
[16] = barnyardgrass (Echinochloa crus-galli), 14 Days After Application, read-out: Visual Growth Reduction (%) ECHCG
[17] = common chickweed (Stellaria media), 14 Days After Application, read-out: Visual Growth Reduction (%) STEME
[18] = giant foxtail (Setaria faberi), 14 Days After Application, read-out: Visual Growth Reduction (%) SETFA
[19] = ivy-leaf morning glory (Ipomoea hederacea), 14 Days After Application, read-out: Visual Growth Reduction (%) IPOHE
[20] = johnsongrass (Sorghum vulgare), 14 Days After Application, read-out: Visual Growth Reduction (%) SORVU
[21] = kochia (Bassia scoparia), 14 Days After Application, read-out: Visual Growth Reduction (%) KCHSC
[22] = rice (Oryza sativa), 14 Days After Application, read-out: Visual Growth Reduction (%) ORYSA
[23] = wheat, spring (Triticum aestivum), 14 Days After Application, read-out: Visual Growth Reduction (%) TRZAS
[24] = blackgrass (Alopecurus myosuroides), 14 Days After Application, read-out: Visual Growth Reduction (%) ALOMY
[25] = canada thistle (Cirsium arvense), 14 Days After Application, read-out: Visual Growth Reduction (%) CIRAR
[26] = crabgrass (Digitaria sanguinalis), 14 Days After Application, read-out: Visual Growth Reduction (%) DIGSA
[27] = lambsquarters (Chenopodium album), 14 Days After Application, read-out: Visual Growth Reduction (%) CHEAL
[28] = redroot pigweed (Amaranthus retroflexus), 14 Days After Application, read-out: Visual Growth Reduction (%) AMARE
[29] = wild oat (Avena fatua), 14 Days After Application, read-out: Visual Growth Reduction (%) AVEFA
[30] = yellow nutsedge (Cyperus esculentus), 14 Days After Application, read-out: Visual Growth Reduction (%) CYPES

Structure (SMILES)	pest or weed control at 140 g/ha [1] [%]	pest or weed control at 140 g/ha [2] [%]	pest or weed control at 140 g/ha [3] [%]	pest or weed control at 140 g/ha [4] [%]	pest or weed control at 140 g/ha [5] [%]	pest or weed control at 140 g/ha [6] [%]	pest or weed control at 140 g/ha [7] [%]	pest or weed control at 140 g/ha [8] [%]	pest or weed control at 140 g/ha [9] [%]	pest or weed control at 140 g/ha [10] [%]	pest or weed control at 140 g/ha [11] [%]	pest or weed control at 140 g/ha [12] [%]	pest or weed control at 140 g/ha [13] [%]	pest or weed control at 140 g/ha [14] [%]	pest or weed control at 140 g/ha [15] [%]	further results
COC(=O)c1nc(-c2ccc(C(F)(F)F)cc2Cl)cc(OC)c1Cl [F39, Methyl 3-chloro-6-(trifluoromethyl) phenyl)-4-methoxypicolinate]	0 to 29	0 to 29	0 to 29	0 to 29	0 to 29	0 to 29	0 to 29	0 to 29	0 to 29	0 to 29	0 to 29	0 to 29	30 to 44	0 to 29	0 to 29	–
COC(=O)c1nc(-c2ccc(C(F)(F)F)cc2Cl)ccc1OC [F2, Methyl 6-(2-chloro-4-4-(trifluoromethyl)phenyl)-3-methoxypicolinate]	0 to 29	60 to 74	0 to 29	0 to 29	0 to 29	0 to 29	85 to 94	–	–	–	–	–	–	–	–	pest or weed control at 140 g/ha [16]: 60 to 74%; pest or weed control at 140 g/ha [17]: 0 to 29%; pest or weed control at 140 g/ha [18]: 30 to 44%; pest or weed control at 140 g/ha [19]: 85 to 94%; pest or weed control at 140 g/ha [20]: 95 to 100%; pest or weed control at 140 g/ha [21]: 0 to 29%; pest or weed control at 140 g/ha [22]: 0 to 29%; pest or weed control at 140 g/ha [23]: 45 to 59%
COC(=O)c1nc(-c2ccc(/C=N/N(C)C)cc2Cl)ccc1Cl [F20, methyl 3-chloro-6-(2-chloro-4-((2,2-dimethylhydrazono)methyl)phenyl) picolinate]	0 to 29	0 to 29	0 to 29	0 to 29	0 to 29	0 to 29	0 to 29	–	–	–	–	–	–	–	–	pest or weed control at 140 g/ha [16]: 0 to 29%; pest or weed control at 140 g/ha [17]: 0 to 29%; pest or weed control at 140 g/ha [18]: 0 to 29%; pest or weed control at 140 g/ha [19]: 60 to 74%; pest or weed control at 140 g/ha [20]: 0 to 29%; pest or weed control at 140 g/ha [21]: 0 to 29%; pest or weed control at 140 g/ha [22]: 0 to 29%; pest or weed control at 140 g/ha [23]: 0 to 29%
COC(=O)c1cc(Cl)cc(-c2ccc(Cl)cc2Cl)n1 [F56, Methyl 4-chloro-6-(2,4-dichlorophenyl) picolinate]	0 to 29	0 to 29	0 to 29	0 to 29	0 to 29	0 to 29	0 to 29	0 to 29	0 to 29	0 to 29	0 to 29	0 to 29	0 to 29	0 to 29	0 to 29	–
COC(=O)c1nc(-c2ccc(OCC(F)(F)F)cc2)c(F)cc1Cl [F163, Methyl 3-chloro-5-fluoro-6-(4-(2,2,2-trifluoroethoxy)phenyl) picolinate]	0 to 29	30 to 44	0 to 29	45 to 59	0 to 29	0 to 29	0 to 29	0 to 29	45 to 59	0 to 29	0 to 29	0 to 29	0 to 29	0 to 29	0 to 29	–
CCOc1c(Cl)ccc(-c2ccc(Cl)c(C(=O)OC)n2)c1Cl [F276, Methyl 3-chloro-6-(2,4-dichloro-3-ethoxyphenyl) picolinate]	–	–	–	–	–	–	–	0 to 29	0 to 29	0 to 29	0 to 29	0 to 29	0 to 29	0 to 29	0 to 29	pest or weed control at 140 g/ha [24]: 0 to 29%; pest or weed control at 140 g/ha [25]: 0 to 29%; pest or weed control at 140 g/ha [26]: 0 to 29%; pest or weed control at 140 g/ha [27]: 0 to 29%; pest or weed control at 140 g/ha [28]: 0 to 29%; pest or weed control at 140 g/ha [29]: 0 to 29%; pest or weed control at 140 g/ha [30]: 0 to 29%
COC(=O)c1nc(-c2cc(C)c(C)cc2Cl)ccc1Cl [F49, Methyl 3-chloro-6-(2-chloro-4,5-dimethylphenyl) picolinate]	0 to 29	30 to 44	0 to 29	45 to 59	0 to 29	0 to 29	0 to 29	0 to 29	0 to 29	0 to 29	0 to 29	0 to 29	0 to 29	0 to 29	0 to 29	–
COC(=O)c1nc(-c2c(Cl)cc(C(F)(F)F)cc2I)ccc1Cl [F214, methyl 3-chloro-6-(2-chloro-6-iodo-4-(trifluoromethyl)phenyl)picolinate]	–	–	–	–	–	–	–	0 to 29	95 to 100	75 to 84	0 to 29	75 to 84	85 to 94	30 to 44	75 to 84	pest or weed control at 140 g/ha [24]: 45 to 59%; pest or weed control at 140 g/ha [25]: 85 to 94%; pest or weed control at 140 g/ha [26]: 95 to 100%; pest or weed control at 140 g/ha [27]: 95 to 100%; pest or weed control at 140 g/ha [28]: 75 to 84%; pest or weed control at 140 g/ha [29]: 60 to 74%; pest or weed control at 140 g/ha [30]: 0 to 29%
COC(=O)c1nc(-c2ccc3c(c2F)OCO3)ccc1Cl [F85, Methyl 3-chloro-6-(4-fluorobenzo[d][1,3]dioxol-5-yl)picolinate]	0 to 29	0 to 29	0 to 29	75 to 84	0 to 29	0 to 29	0 to 29	30 to 44	0 to 29	45 to 59	0 to 29	0 to 29	0 to 29	0 to 29	0 to 29	–
